Laboratory results from ChEMBL document CHEMBL1128108, “Synthesis and antitumor activity of camptothecin derivatives bearing five-membered heterocycle containing 10-substituents” (1995).
Converted amounts (≈) assume the structure as drawn.

Assays:
Type in all cases: functional
MCF7 [1] = assay: In vitro cytotoxicity assay was measured against human tumor MCF-7 cell line using camptothecin as a standard; conditions: read-out: TD50 (the source's name)
L1210/Adr [2] = assay: In vitro cytotoxicity assay was measured against human tumor L1210/Adr cell line using camptothecin as a standard; conditions: Mus musculus, read-out: TD50 (the source's name)
HCT-116 [3] = assay: In vitro cytotoxicity assay was measured against human tumor HCT116 cell line using camptothecin as a standard; conditions: read-out: TD50 (the source's name)
KB [4] = assay: In vitro cytotoxicity assay was measured against human tumor KB cell line using camptothecin as a standard; conditions: read-out: TD50 (the source's name)
L1210 [5] = assay: In vitro cytotoxicity assay was measured against human tumor L1210 cell line using camptothecin as a standard; conditions: Mus musculus, read-out: TD50 (the source's name)
L1210 [6] = assay: In vitro cytotoxicity assay was measured against human tumor L1210 cell line; conditions: Mus musculus, read-out: TD50 (the source's name)
HCT-116 [7] = assay: In vitro cytotoxicity assay was measured against human tumor HCT116 cell line; conditions: read-out: TD50 (the source's name)
MCF7 [8] = assay: In vitro cytotoxicity assay was measured against human tumor MCF-7 cell line; conditions: read-out: TD50 (the source's name)
KB [9] = assay: In vitro cytotoxicity assay was measured against human tumor KB cell line; conditions: read-out: TD50 (the source's name)
L1210/Adr [10] = assay: In vitro cytotoxicity assay was measured against human tumor L1210/Adr cell line; conditions: Mus musculus, read-out: TD50 (the source's name)

SMILES | CC50 (MCF7 [1]) | CC50 (L1210/Adr [2]) | CC50 (HCT-116 [3]) | CC50 (KB [4]) | CC50 (L1210 [5]) | CC50 (L1210 [6]) | CC50 (HCT-116 [7]) | CC50 (MCF7 [8]) | CC50 (KB [9]) | CC50 (L1210/Adr [10])
CCC1(O)C(=O)OCc2c1cc1n(c2=O)Cc2cc3cc(OCCNC(=O)S(=O)(=O)c4cccs4)ccc3nc2-1 (stereo not given) | 100 ng/mL (≈ 172 nM) | 0.1 ng/mL (≈ 0.172 nM) | 0.01 ng/mL (≈ 0.0172 nM) | 0.5 ng/mL (≈ 0.86 nM) | 0.085 ng/mL (≈ 0.146 nM) | – | – | – | – | –
CCC1(O)C(=O)OCc2c1cc1n(c2=O)Cc2cc3cc(OCCNC(=O)c4ccc[nH]4)ccc3nc2-1 (stereo not given) | 260 ng/mL (≈ 519 nM) | 1 ng/mL (≈ 2 nM) | 0.01 ng/mL (≈ 0.02 nM) | 0.4 ng/mL (≈ 0.799 nM) | 0.1 ng/mL (≈ 0.2 nM) | – | – | – | – | –
CCC1(O)C(=O)OCc2c1cc1n(c2=O)Cc2cc3cc(OCCNC(=O)C4CCCO4)ccc3nc2-1 (stereo not given) | 900 ng/mL (≈ 1780 nM) | 320 ng/mL (≈ 633 nM) | 55 ng/mL (≈ 109 nM) | 69 ng/mL (≈ 136 nM) | 50 ng/mL (≈ 98.9 nM) | – | – | – | – | –
CCC1(O)C(=O)OCc2c1cc1n(c2=O)Cc2cc3cc(OCCNC(=O)c4cccs4)ccc3nc2-1 (stereo not given) | 68 ng/mL (≈ 131 nM) | 1.5 ng/mL (≈ 2.9 nM) | 0.04 ng/mL (≈ 0.0773 nM) | 0.5 ng/mL (≈ 0.966 nM) | 0.1 ng/mL (≈ 0.193 nM) | – | – | – | – | –
CCC1(O)C(=O)OCc2c1cc1n(c2=O)Cc2cc3cc(OCCNC(=O)c4cccn4COC)ccc3nc2-1 (stereo not given) | 120 ng/mL (≈ 220 nM) | 15 ng/mL (≈ 27.5 nM) | 0.7 ng/mL (≈ 1.29 nM) | 5 ng/mL (≈ 9.18 nM) | 1 ng/mL (≈ 1.84 nM) | – | – | – | – | –
CCC1(O)C(=O)OCc2c1cc1n(c2=O)Cc2cc3cc(OCCNC(=O)c4nccn4COC)ccc3nc2-1 (stereo not given) | 750 ng/mL (≈ 1370 nM) | 10 ng/mL (≈ 18.3 nM) | 3 ng/mL (≈ 5.5 nM) | 7 ng/mL (≈ 12.8 nM) | 2 ng/mL (≈ 3.67 nM) | – | – | – | – | –
CCC1(O)C(=O)OCc2c1cc1n(c2=O)Cc2cc3cc(OCCNC(=O)c4cccn4C)ccc3nc2-1 (stereo not given) | 140 ng/mL (≈ 272 nM) | 0.95 ng/mL (≈ 1.85 nM) | 0.01 ng/mL (≈ 0.0194 nM) | 0.5 ng/mL (≈ 0.972 nM) | 0.2 ng/mL (≈ 0.389 nM) | – | – | – | – | –
CCC1(O)C(=O)OCc2c1cc1n(c2=O)Cc2cc3cc(OCCNC(=O)c4ccco4)ccc3nc2-1 (stereo not given) | 820 ng/mL (≈ 1640 nM) | 15 ng/mL (≈ 29.9 nM) | 1 ng/mL (≈ 1.99 nM) | 5 ng/mL (≈ 9.97 nM) | 4 ng/mL (≈ 7.98 nM) | – | – | – | – | –
CCC1(O)C(=O)OCc2c1cc1n(c2=O)Cc2cc3cc(OCCNC(=O)/C=C/c4ccco4)ccc3nc2-1 (stereo not given) | 1000 ng/mL (≈ 1900 nM) | 140 ng/mL (≈ 265 nM) | 65 ng/mL (≈ 123 nM) | 83 ng/mL (≈ 157 nM) | 50 ng/mL (≈ 94.8 nM) | – | – | – | – | –
CC[C@@]1(O)C(=O)OCc2c1cc1n(c2=O)Cc2cc3ccccc3nc2-1 [CAMPTOTHECIN] | – | – | – | – | – | 10 ng/mL (≈ 28.7 nM) | 6 ng/mL (≈ 17.2 nM) | 10 ng/mL (≈ 28.7 nM) | 8 ng/mL (≈ 23 nM) | 45 ng/mL (≈ 129 nM)
COc1cccc2c1C(=O)c1c(O)c3c(c(O)c1C2=O)C[C@@](O)(C(=O)CO)C[C@@H]3O[C@H]1C[C@H](N)[C@H](O)[C@H](C)O1 [DOXORUBICIN] | 150 ng/mL (≈ 276 nM) | 400 ng/mL (≈ 736 nM) | 30 ng/mL (≈ 55.2 nM) | 15 ng/mL (≈ 27.6 nM) | 6 ng/mL (≈ 11 nM) | – | – | – | – | –
